The numbers were not newly measured in patent publication US8063249B1, “Substituted triphenyl butenes” (Olema Pharmaceuticals, Inc., priority 2008, dated 2011), which cites them from elsewhere.

Read-outs that look alike come from different tables or passages of the source.

The target of one series is T1, UGT 1A8 (Homo sapiens, UniProt Q9HAW9).
T1 sequence (Q9HAW9 26-530): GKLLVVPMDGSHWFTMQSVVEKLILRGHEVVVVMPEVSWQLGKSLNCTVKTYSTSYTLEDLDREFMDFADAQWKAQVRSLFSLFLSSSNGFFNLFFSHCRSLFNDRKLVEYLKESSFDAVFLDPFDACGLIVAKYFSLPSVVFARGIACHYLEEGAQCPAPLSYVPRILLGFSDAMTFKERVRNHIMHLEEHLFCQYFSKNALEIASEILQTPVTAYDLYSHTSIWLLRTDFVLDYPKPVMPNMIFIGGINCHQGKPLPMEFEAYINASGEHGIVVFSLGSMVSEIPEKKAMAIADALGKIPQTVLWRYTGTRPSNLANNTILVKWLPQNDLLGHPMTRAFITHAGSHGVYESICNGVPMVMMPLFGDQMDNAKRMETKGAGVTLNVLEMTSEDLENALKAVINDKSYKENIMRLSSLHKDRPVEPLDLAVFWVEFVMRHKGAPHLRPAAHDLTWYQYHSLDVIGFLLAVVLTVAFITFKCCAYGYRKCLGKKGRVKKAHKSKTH

The next series concerns the target T2, UGT 1A10 (Homo sapiens, UniProt Q9HAW8).
T2 sequence (Q9HAW8 26-530): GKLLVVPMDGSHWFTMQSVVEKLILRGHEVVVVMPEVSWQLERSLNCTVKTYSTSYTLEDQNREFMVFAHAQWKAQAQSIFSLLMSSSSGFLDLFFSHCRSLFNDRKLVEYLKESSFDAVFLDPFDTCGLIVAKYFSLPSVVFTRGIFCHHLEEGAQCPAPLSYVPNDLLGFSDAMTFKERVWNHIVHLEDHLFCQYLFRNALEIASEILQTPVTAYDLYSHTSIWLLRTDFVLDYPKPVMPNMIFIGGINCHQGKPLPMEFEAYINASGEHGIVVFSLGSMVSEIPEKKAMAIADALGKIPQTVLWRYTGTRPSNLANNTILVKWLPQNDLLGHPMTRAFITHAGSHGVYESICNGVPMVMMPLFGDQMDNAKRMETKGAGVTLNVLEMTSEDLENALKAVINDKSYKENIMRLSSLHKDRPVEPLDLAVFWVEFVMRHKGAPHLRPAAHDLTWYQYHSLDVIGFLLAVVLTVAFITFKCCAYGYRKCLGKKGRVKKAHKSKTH

The test system of another series is ER. The following applies: for binding constants for the ER compared with estradiol: relative to estradiol, from Jordan, Steroids 2007; for binding to the ER: statement in words, from the literature.
Where [1] appears, read: hydroxy group, from Sun et al. 2007.

Regarding 4-hydroxy tamoxifen, the “substrate for O-glucuronidation by UGT 1A8” value on UGT 1A8 is recorded as “substrates for O-glucuronidation”. In addition, the “substrate for O-glucuronidation by UGT 1A10” value on UGT 1A10 is given as “substrates for O-glucuronidation”. In the series on ER, the “binding constants for the ER compared with estradiol” value is reported as “roughly equal to that of estradiol” and the “binding to the ER” value is “bind with high affinity”.
As for `CC/C(=C(\c1ccccc1)c1ccc(OCCN(C)C)cc1)c1ccccc1` [Tamoxifen, tamoxifen], the “binding to the ER” value with ER is “binds very poorly”.
In the case of `CC/C(=C(\c1ccc(O)cc1)c1ccc(OCCNC)cc1)c1ccccc1` [endoxifen, 4-hydroxy N-desmethyl tamoxifen], at UGT 1A8 (setting [1]), the “substrate for O-glucuronidation by UGT 1A8” value is given as “substrates for O-glucuronidation”. On UGT 1A10 (setting [1]), the “substrate for O-glucuronidation by UGT 1A10” value was “substrates for O-glucuronidation”. Besides, in the series on ER, the “binding constants for the ER compared with estradiol” value was “roughly equal to that of estradiol” and the “binding to the ER” value was “bind with high affinity”.
For the molecule `CCC(=C(c1ccc(OCCNC)cc1)c1ccc(OC2OC(C(=O)O)C(O)C(O)C2O)cc1)c1ccccc1` (stereo not shown) [glucuronated endoxifen], the “binding to the ER” value in the series with ER is reported as “can no longer bind”.
